This is an account of results in US10329289B2, “6,7-dihydro-5H-pyrrolo[3,4-B]pyridin-5-one allosteric modulators of the M4 muscarinic acetylcholine receptor” (Merck Sharp & Dohme Corp., priority 2015, dated 2019).

This assay addresses T1, human M4 muscarinic acetylcholine receptor (Homo sapiens, UniProt P08173).
T1 construct: expressed in transfected cells; host or cells: CHO-K1
T1 sequence (P08173 1-479): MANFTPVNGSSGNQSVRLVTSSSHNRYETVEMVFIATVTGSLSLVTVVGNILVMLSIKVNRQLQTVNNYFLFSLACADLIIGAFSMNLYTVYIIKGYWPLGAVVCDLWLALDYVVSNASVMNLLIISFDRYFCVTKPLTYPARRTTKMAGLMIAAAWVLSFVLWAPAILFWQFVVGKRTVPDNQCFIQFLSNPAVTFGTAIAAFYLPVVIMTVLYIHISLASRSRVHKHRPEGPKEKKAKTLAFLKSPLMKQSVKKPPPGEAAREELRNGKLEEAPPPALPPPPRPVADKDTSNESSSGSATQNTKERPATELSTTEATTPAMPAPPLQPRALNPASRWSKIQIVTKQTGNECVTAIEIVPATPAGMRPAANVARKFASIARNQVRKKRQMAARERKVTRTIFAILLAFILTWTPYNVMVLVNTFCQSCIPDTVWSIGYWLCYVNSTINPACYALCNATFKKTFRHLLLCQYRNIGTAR
Briefly: human FLIPR-based M4 PAM assay (Ca2+ mobilization, CHO-K1 cells with human M4 receptor and Gαqi5). The assay is classed as cell-based. To be noted: acetylcholine at 20% of maximum response, read-out: M4 PAM IP. Summed up: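 CHO-K1 cells stably expressing human M4 and chimeric Gαqi5 were dye-loaded ~1 h at 37 °C and read for Ca2+ fluorescence. Compound followed by acetylcholine at an EC20 (sometimes an EC70 third addition); inflection point from a 4-parameter logistic fit.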
(In general: Calcium flux is commonly read through the fluorescence of an indicator in the cells.)
With `COc1ccc(O[C@@H]2C[C@H]3CC[C@@H](C2)N3c2nc3c(cc2C)C(=O)NC3)cn1` [Example 99, 2-(exo-3-((6-methoxypyridin-3-yl)oxy)-8-azabicyclo[3.2.1]octan-8-yl)-3-methyl-6,7-dihydro-5H-pyrrolo[3,4-b]pyridin-5-one], the EC50 was found to be 735 nM. The same measure for `Cc1cc2c(nc1N1CCC(OCC3(CO)CC3)CC1)CNC2=O` [Example 312, 2-(4-((1-(hydroxymethyl)cyclopropyl)methoxy)piperidin-1-yl)-3-methyl-6,7-dihydro-5H-pyrrolo[3,4-b]pyridin-5-one]: 651 nM; for `COc1ccc(OC2CCN(c3nc4c(cc3C(F)F)C(=O)NC4)CC2)cn1` [Example 307, 3-(Difluoromethyl)-2-(4-((6-methoxypyridin-3-yl)oxy)piperidin-1-yl)-6,7-dihydro-5H-pyrrolo[3,4-b]pyridin-5-one]: 1310 nM; for `COc1ccc(OC2CCN(c3nc4c(cc3C)C(=O)NC4O)CC2)cn1` (stereo not drawn) [Example 298, 7-Hydroxy-2-(4-((6-methoxypyridin-3-yl)oxy)piperidin-1-yl)-3-methyl-6,7-dihydro-5H-pyrrolo[3,4-b]pyridin-5-one]: 24 nM. For the molecule `Cc1cc2c(nc1N1CCC(Oc3ccc4c(c3)CCOCC4)CC1)CNC2=O` [Example 321B, 3-methyl-2-(4-((1,2,4,5-tetrahydrobenzo[d]oxepin-7-yl)oxy)piperidin-1-yl)-6,7-dihydro-5H-pyrrolo[3,4-b]pyridin-5-one], the EC50 was found to be 91 nM. The same measure for `Cc1cc2c(nc1N1CCC(OCC3CCC3)CC1)CNC2=O` [Example 172, 2-(4-(cyclobutylmethoxy)piperidin-1-yl)-3-methyl-6,7-dihydro-5H-pyrrolo[3,4-b]pyridin-5-one]: 125 nM; for `Cc1cc2c(nc1N1CCC(Oc3cnc4c(c3)COC4)CC1)[C@@H](CO)N(C)C2=O` [Example 278A, (S)-2-(4-((5,7-dihydrofuro[3,4-b]pyridin-3-yl)oxy)piperidin-1-yl)-7-(hydroxymethyl)-3,6-dimethyl-6,7-dihydro-5H-pyrrolo[3,4-b]pyridin-5-one]: 76 nM; for `Cc1cc2c(nc1N1CCC(OCC3(C)CCC3)CC1)CNC2=O` [Example 184, 3-methyl-2-(4-((1-methylcyclobutyl)meth-oxy)piperidin-1-yl)-6,7-dihydro-5H-pyrrolo[3,4-b]pyridin-5-one]: 246 nM. The same measure for `COCCOCc1ccc(OC2CCN(c3nc4c(cc3C)C(=O)NC4)CC2)cc1` [Example 205, 2-(4-(4-((2-methoxyethoxy)methyl)phenoxy)piperidin-1-yl)-3-methyl-6,7-dihydro-5H-pyrrolo[3,4-b]pyridin-5-one]: 238 nM; for `CCOC1CCN(c2nc3c(cc2C)C(=O)NC3)CC1` [Example 55, 2-(4-ethoxypiperidin-1-yl)-3-methyl-6,7-dihydro-5H-pyrrolo[3,4-b]pyridin-5-one]: 1120 nM.

With `CCc1cc2c(nc1N1CCC(Oc3ccc4c(c3)COC4)CC1)[C@@H](CO)N(C)C2=O` [Example 351, (S)-2-(4-((1,3-dihydro-2-benzofuran-5-yl)oxy)piperidin-1-yl)-3-ethyl-7-(hydroxymethyl)-6-methyl-6,7-dihydro-5H-pyrrolo[3,4-b]pyridin-5-one], the EC50 was found to be 40 nM. The result for `Cc1cc2c(nc1N1CC[C@@H](Oc3ccc4c(c3)COC4)[C@@H](F)C1)CN(C)C2=O` [Example 46, 2-((3S,4R)-4-((1,3-dihydro-2-benzofuran-5-yl)oxy)-3-fluoropiperidin-1-yl)-3,6-dimethyl-6,7-dihydro-5H-pyrrolo[3,4-b]pyridin-5-one] reads 32 nM; that for `COc1ccc(OC2CCN(c3nc4c(cc3C)C(=O)N(C)C4C(C)(C)O)CC2)cn1` (stereo not drawn) [Example 322, 7-(2-Hydroxypropan-2-yl)-2-(4-((6-methoxypyridin-3-yl)oxy)piperidin-1-yl)-3,6-dimethyl-6,7-dihydro-5H-pyrrolo[3,4-b]pyridin-5-one], 499 nM; that for `COCCCN1Cc2nc(N3CCC(Oc4ccc(OC)nc4)CC3)c(C)cc2C1=O` [Example 251, 6-(3-methoxypropyl)-2-(4-((6-methoxypyridin-3-yl)oxy)piperidin-1-yl)-3-methyl-6,7-dihydro-5H-pyrrolo[3,4-b]pyridin-5-one], 198 nM. The same measure for `Cc1cc2c(nc1N1CCC(OCC3(C#N)CC3)CC1)CNC2=O` [Example 36, 1-(((1-(3-methyl-5-oxo-6,7-dihydro-5H-pyrrolo[3,4-b]pyridin-2-yl)piperidin-4-yl)oxy)methyl)cyclo-propane-1-carbonitrile]: 302 nM; for `CCc1cc2c(nc1N1CCC(Oc3ccc4c(c3)COCC4)CC1)CNC2=O` [Example 200, 3-ethyl-2-(4-(isochroman-7-yloxy)piperidin-1-yl)-6,7-dihydro-5H-pyrrolo[3,4-b]pyridin-5-one]: 96 nM; for `Cc1cc2c(nc1N1CCC(Oc3ccc4c(c3)OCC4)CC1)CNC2=O` [Example 198, 2-(4-((2,3-dihydrobenzofuran-6-yl)oxy)piperidin-1-yl)-3-methyl-6,7-dihydro-5H-pyrrolo[3,4-b]pyridin-5-one]: 18 nM. The same measure for `Cc1ccc(OC2CCN(c3nc4c(cc3C)C(=O)NC4)CC2)cc1C` [Example 119, 2-(4-(3,4-dimethylphenoxy)piper-idin-1-yl)-3-methyl-6,7-dihydro-5H-pyrrolo[3,4-b]pyridin-5-one]: 149 nM; for `Cc1cc2c(nc1N1CC[C@@H](Oc3ccc4[nH]ncc4c3)[C@@H](F)C1)CNC2=O` [Example 8, 2-((3S,4R)-4-((1H-indazol-5-yl)oxy)-3-fluoropiperidin-1-yl)-3-methyl-6,7-dihydro-5H-pyrrolo[3,4-b]pyridin-5-one]: 14 nM; for `Cc1cc2c(nc1N1CC[C@@H](Oc3cnc4c(c3)COC4)[C@H](F)C1)CNC2=O` [Example 48A, 2-((3R,4R)-4-((5,7-dihydrofuro[3,4-b]pyridin-3-yl)oxy)-3-fluoropiperidin-1-yl)-3-methyl-6,7-dihydro-5H-pyrrolo[3,4-b]pyridin-5-one]: 67 nM. For `Cc1cc2c(nc1N1CC[C@@H](Oc3ccc4c(cnn4C)c3)[C@@H](F)C1)CN(C)C2=O` [Example 31, 2-((3S,4R)-3-fluoro-4-((1-methyl-1H-indazol-5-yl)oxy)piperidin-1-yl)-3,6-dimethyl-6,7-dihydro-5H-pyrrolo[3,4-b]pyridin-5-one], the EC50 came out at 42 nM.

Take `Cc1cc2c(nc1N1CC[C@@H](Oc3ccc4c(cnn4C)c3)[C@@H](F)C1)[C@H](CO)N(C)C2=O` [Example 284, (R)-2-((3S,4R)-3-fluoro-4-((1-methyl-1H-indazol-5-yl)oxy)piperidin-1-yl)-7-(hydroxymethyl)-3,6-dimethyl-6,7-dihydro-5H-pyrrolo[3,4-b]pyridin-5-one]: the EC50 turned out to be 4330 nM. The result for `Cc1cc2c(nc1N1CC[C@@H](Oc3ccc4c(c3)COC4)[C@@H](F)C1)[C@H](CO)N(C)C2=O` [Example 277, (R)-2-((3S,4R)-4-((1,3-dihydro-2-benzofuran-5-yl)oxy)-3-fluoropiperidin-1-yl)-7-(hydroxymethyl)-3,6-dimethyl-6,7-dihydro-5H-pyrrolo[3,4-b]pyridin-5-one] reads 3400 nM.

`Cc1cc2c(nc1N1CCC(Oc3cccc(C=O)c3)CC1)CNC2=O` [Example 308, 3-((1-(3-Methyl-5-oxo-6,7-dihydro-5H-pyrrolo[3,4-b]pyridin-2-yl)piperidin-4-yl)oxy)benzaldehyde]: the EC50 was determined as 176 nM.
